Test system: 598228-144-R-J1-PDC complex spheroids, viability
Experiment: Anticancer human tumor 598228-144-R-J1-PDC patient-derived serous endometrial adenocarcinoma cell line growth inhibition [CLK]
Conditions: for IC50: curve of first compound; for viability, T/C: stronger effect = lower value
Excerpt: A high-throughput screen of multi-cell type tumor spheroids was designed to identify active combinations of […] and targeted small molecules. Complex spheroids include a stromal component modeled by human endothelial cells (HUVEC) and fibroblasts modeled by human mesenchymal stem cells (MSCs). The concentration ranges selected for each drug and investigational agent were based upon clinically achievable concentrations if the clinical Cmax of the agent was known.
Compounds. The drugs and investigational agents: cirtuvivint (SM08502; NSC835563), CC-671 (NSC850746), vemurafenib (NSC761431), tapotoclax (NSC804041), sotorasib (NSC818433), adagrasib (NSC831453), MRTX-1133 (NSC836407), BAY2416964 (NSC825713), copanlisib (NSC816437), inavolisib (NSC800729), abemaciclib (NSC768073), osimertinib (NSC779217), entinostat (NSC756642), eltanexor (KPT-8602, NSC794443), venetoclax (NSC766270), ceralasertib (NSC777638), bortezomib (NSC756655), olaparib (NSC753686), talazoparib (NSC767125), alisertib (NSC759677), peposertib (NSC802822), gemcitabine (NSC613327), 5-fluorouracil (NSC19893), SN-38 (NSC673596), oxaliplatin (NSC266046), paclitaxel (NSC125973), and doxorubicin (NSC123127), were obtained from the National Cancer Institute (NCI) Developmental Therapeutics Program Chemical Repository. The FDA-approved anticancer drug set is available from the Developmental Therapeutics Program at https://dtp.cancer.gov/organization/dscb/obtaining/available plates.htm. […] The stock solutions were prepared in dimethyl sulfoxide (DMSO, Sigma-Aldrich, St. Louis, MO, cat. D2650), except for the platinum complexes which were prepared in saline (Quality Biological, Gaithersburg, MD, cat. 114-055-101), at 800-fold the tested concentration and stored at -70 degrees C prior to their use. All drugs and investigational agents were tested over a range starting from a high concentration at or near the clinical Cmax and decreasing in half-log increments. If the clinical Cmax for an agent had not been determined, the highest concentration tested was 10 microM.
Cell Culture. All cells were maintained in an incubator at 37 degrees C and 5% CO2 with 95% humidity. The PDC lines were cultured according to standard operating procedures established by the NCI PDMR. Briefly, all PDCs were thawed and cultured in Matrigel-coated flasks prepared with a working solution of 1X Ham's F-12 nutrient mix, without supplementation (Invitrogen, Waltham, MA, cat. 11765054), 100 U/mL penicillin-streptomycin (Invitrogen, cat. 15140122), and 2.5% Matrigel (Corning Inc., Corning, NY, cat. 354248) for the first three passages. The 947758-054-R-J2-PDC line was cultured in 6B/Colon 1A media, which includes advanced DMEM/F-12 (Thermo Fisher Scientific, cat. 12634028), 10 mM HEPES (Thermo Fisher Scientific, cat. 15630080), 1X GlutaMAX supplement (Thermo Fisher Scientific, cat. 35050061), 0.1 mg/mL primocin (InvivoGen, cat. ant-pm-2), 10% defined fetal bovine serum, heat inactivated (HyClone Laboratories Inc., cat. SH30070.03HI), 1.25 mM N-Acetyl-L-cysteine (Sigma-Aldrich, cat. A9165), 10 mM nicotinamide (Sigma-Aldrich, cat. N0636), 1X B-27 supplement (Thermo Fisher Scientific, cat. 17504044), 1X N-2 supplement (Thermo Fisher Scientific, cat. 17502048), and 10 microM Y-27632 dihydrochloride (Tocris Bioscience, cat. 1254). The 876862-298-R-J1-PDC was cultured in 6E media, which includes all 6B/Colon 1A media components plus 50% L-WRN conditioned media (ATCC, cat. CRL-3276), 50 ng/mL recombinant human EGF recombinant protein (hEGF; Thermo Fisher Scientific, cat. PHG0311), 10 ng/mL recombinant human fibroblast growth factor 10 (hGFG-10; PeproTech, cat. 100-26), 1 ng/mL recombinant human fibroblast growth factor 2 (hFGF-2; PeproTech, cat. 100-18B), and 1 µM prostaglandin E2 (PGE2; Tocris, cat. 2296). The 227483-062-R1-J1-PDC line was cultured in Panc media, containing all 6E components except hFGF-2, with the addition of 500 nM SB-431542 (Selleckchem, cat. S1067) and 10 nM gastrin (Tocris, cat. 3006). […]

[1] = second compound 0.0316 µM, first compound 0.0316 µM
[2] = second compound 0.0316 µM, first compound 0.1 µM
[3] = second compound 0.0316 µM, first compound 0.316 µM
[4] = second compound 0.0316 µM, first compound 1 µM
[5] = second compound 0.0316 µM, first compound 3.16 µM
[6] = second compound 0.0316 µM, first compound 10 µM
[7] = second compound 0.1 µM, first compound 0.0316 µM
[8] = second compound 0.1 µM, first compound 0.1 µM
[9] = second compound 0.1 µM, first compound 0.316 µM
[10] = second compound 0.1 µM, first compound 1 µM
[11] = second compound 0.1 µM, first compound 3.16 µM
[12] = second compound 0.1 µM, first compound 10 µM
[13] = second compound 0.316 µM, first compound 0.0316 µM
[14] = second compound 0.316 µM, first compound 0.1 µM
[15] = second compound 0.316 µM, first compound 0.316 µM
[16] = second compound 0.316 µM, first compound 1 µM
[17] = second compound 0.316 µM, first compound 3.16 µM
[18] = second compound 0.316 µM, first compound 10 µM
[19] = second compound 1 µM, first compound 0.0316 µM
[20] = second compound 1 µM, first compound 0.1 µM
[21] = second compound 1 µM, first compound 0.316 µM
[22] = second compound 1 µM, first compound 1 µM
[23] = second compound 1 µM, first compound 3.16 µM
[24] = second compound 1 µM, first compound 10 µM
[25] = second compound 3.16 µM, first compound 0.0316 µM
[26] = second compound 3.16 µM, first compound 0.1 µM
[27] = second compound 3.16 µM, first compound 0.316 µM
[28] = second compound 3.16 µM, first compound 1 µM
[29] = second compound 3.16 µM, first compound 3.16 µM
[30] = second compound 3.16 µM, first compound 10 µM
[31] = second compound 10 µM, first compound 0.0316 µM
[32] = second compound 10 µM, first compound 0.1 µM
[33] = second compound 10 µM, first compound 0.316 µM
[34] = second compound 10 µM, first compound 1 µM
[35] = second compound 10 µM, first compound 3.16 µM
[36] = second compound 10 µM, first compound 10 µM
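Also: spheroids exposed to compounds for seven days before readout.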
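For viability, T/C in this document: 100% = DMSO vehicle control wells.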

CC1COCCN1c1cc(C2(S(C)(=N)=O)CC2)nc(-c2ccnc3[nH]ccc23)n1 (centres undefined) + CN1CCN(c2cc(C(=O)Nc3cc4cc(-c5cnn(C)c5)ccc4cn3)ccn2)CC1 was tested, and the IC50 (second compound 0.0316 µM) was 6130 nM, the IC50 (second compound 0.1 µM) was 3010 nM and the IC50 (second compound 0.316 µM) was under 31.6 nM. The IC50 (second compound 1 µM) was under 31.6 nM, the IC50 (second compound 3.16 µM) was under 31.6 nM and the IC50 (second compound 10 µM) was under 31.6 nM. It also gave a viability, T/C [1] of 126%, a viability, T/C [2] of 125% and a viability, T/C [3] of 105%. For the same compound, the viability, T/C [4] was 102%, the viability, T/C [5] was 63.5% and the viability, T/C [6] was 38.3%. It also gave a viability, T/C [7] of 127%, a viability, T/C [8] of 122% and a viability, T/C [9] of 110%. It also gave a viability, T/C [10] of 89.1%, a viability, T/C [11] of 46% and a viability, T/C [12] of 28.6%. It also gave a viability, T/C [13] of 17.1%, a viability, T/C [14] of 16.4% and a viability, T/C [15] of 17.9%. For the same compound, the viability, T/C [16] was 14.8%, the viability, T/C [17] was 16.3% and the viability, T/C [18] was 13.3%. The viability, T/C [19] was 1.37%, the viability, T/C [20] was 1.72% and the viability, T/C [21] was 2.93%. The viability, T/C [22] was 1.07%, the viability, T/C [23] was 2.89% and the viability, T/C [24] was 7.44%. The viability, T/C [25] was 1.86%, the viability, T/C [26] was 3.02% and the viability, T/C [27] was 2%. It also gave a viability, T/C [28] of 1.65%, a viability, T/C [29] of 3.13% and a viability, T/C [30] of 7.42%. The viability, T/C [31] was 1.07%, the viability, T/C [32] was 1.83% and the viability, T/C [33] was 2.32%. It also gave a viability, T/C [34] of 0.91%, a viability, T/C [35] of 2.14% and a viability, T/C [36] of 3.43%.

For CC(Nc1ccc2c(c1)OCCn1cc(N3C(=O)OCC3C(F)F)nc1-2)C(N)=O (centres undefined) + CNC(=O)c1ccc(Nc2nc(OC3CCCC3)c3c(-c4ccc5nc(C)oc5c4)c[nH]c3n2)c(OC)c1, the IC50 (second compound 0.0316 µM) was 309 nM, the IC50 (second compound 0.1 µM) was 310 nM and the IC50 (second compound 0.316 µM) was 248 nM. It also gave an IC50 (second compound 1 µM) of 159 nM, an IC50 (second compound 3.16 µM) of 145 nM and an IC50 (second compound 10 µM) of 100 nM. The viability, T/C [1] was 91.9%, the viability, T/C [2] was 62.8% and the viability, T/C [3] was 53.1%. It also gave a viability, T/C [4] of 38.2%, a viability, T/C [5] of 31.5% and a viability, T/C [6] of 25.8%. For the same compound, the viability, T/C [7] was 88.2%, the viability, T/C [8] was 70.3% and the viability, T/C [9] was 47%. It also gave a viability, T/C [10] of 35.5%, a viability, T/C [11] of 35.5% and a viability, T/C [12] of 22.1%. The viability, T/C [13] was 77.5%, the viability, T/C [14] was 58.5% and the viability, T/C [15] was 51.6%. The viability, T/C [16] was 32.2%, the viability, T/C [17] was 26.2% and the viability, T/C [18] was 22.9%. The viability, T/C [19] was 75.2%, the viability, T/C [20] was 56.4% and the viability, T/C [21] was 37.4%. The viability, T/C [22] was 32.4%, the viability, T/C [23] was 23.1% and the viability, T/C [24] was 12.8%. The viability, T/C [25] was 69.7%, the viability, T/C [26] was 58.4% and the viability, T/C [27] was 33.8%. The viability, T/C [28] was 26.4%, the viability, T/C [29] was 21.2% and the viability, T/C [30] was 13.7%. It also gave a viability, T/C [31] of 70.3%, a viability, T/C [32] of 50.6% and a viability, T/C [33] of 33.1%. It also gave a viability, T/C [34] of 22.9%, a viability, T/C [35] of 18.8% and a viability, T/C [36] of 12.6%.
